According to patent publication US20090023773A1, “COMPOSITIONS AND METHODS FOR MODULATING GATED ION CHANNELS” (PainCeptor Pharma Corporation, priority 2007, published 2009):
Each block holds one compound with its values, some of them ahead of it.

Columns and labels:
[1] = target: T1, hASIC1a (Homo sapiens, UniProt P78348); assay: Fluorescent calcium dye (Fluo-4-NW) assay in cells expressing hASIC1a (Example 1); format: cell-based; details: CHO cells stably expressing hASIC1a, mild acidic buffer, increasing concentrations; FIGS. 1A-1C
T1 construct: expressed in transfected cells
T1 sequence (P78348 1-528): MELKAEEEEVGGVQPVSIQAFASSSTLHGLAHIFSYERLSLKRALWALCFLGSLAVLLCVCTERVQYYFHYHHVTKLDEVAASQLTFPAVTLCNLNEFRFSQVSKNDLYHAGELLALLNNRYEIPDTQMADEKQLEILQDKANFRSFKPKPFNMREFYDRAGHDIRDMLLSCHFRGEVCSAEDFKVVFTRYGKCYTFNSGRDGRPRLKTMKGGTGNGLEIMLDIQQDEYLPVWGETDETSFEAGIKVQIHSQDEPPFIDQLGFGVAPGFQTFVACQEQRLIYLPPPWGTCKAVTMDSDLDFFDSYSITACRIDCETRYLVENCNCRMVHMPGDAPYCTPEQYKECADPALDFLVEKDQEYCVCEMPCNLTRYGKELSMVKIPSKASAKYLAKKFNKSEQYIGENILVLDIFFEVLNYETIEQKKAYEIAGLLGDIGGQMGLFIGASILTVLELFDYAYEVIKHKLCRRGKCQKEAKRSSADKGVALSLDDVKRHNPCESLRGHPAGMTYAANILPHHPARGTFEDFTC
Method: ASIC1a expressing CHO cells are grown in culture medium (DMEM with 10% FBS), in polystyrene culture flasks ([…]) at 37° C. in a humidified atmosphere of 5% CO2. Confluency of cells should be 70-90% on day of plating. Cells are rinsed with 10 ml of PBS and cells are re-suspended by addition of culture medium and trituration with a 25 ml pipette. The cells are seeded at a density of approximately 10^4 cells/ml (50 μl/well and then brought to a total volume of 150 μl/well with culture medium, following 30 minutes incubation) in black-walled, clear bottom, 96-well plates pre-treated with poly-D-lysine (from BD Bioscience). Plated cells were allowed to proliferate for 48-72 h before loading with dye. Fluo-4-NW (500 μg, DiscoveRX) is dissolved in 110 μl DMSO. The Fluo-4-NW stock solution (1000×) is diluted with the assay buffer. A water soluble stock solution (100×) of probenicid (DiscoveRX) and a stock solution (1000×) of pluronic acid (P-127, Molecular Probes) are also added in the loading buffer containing Fluo-4NW dye. The culture medium is aspirated from the wells, and 100 μl of the Fluo-4-NW loading solution is added to each well. The cells are incubated at 37° C. for 30 min. followed by 30 min. incubation at room temperature. The assay buffer contains 90 mM NaCl, 5 mM KCl, 4 mM CaCl2, 0.8 mM MgSO4, 50 mM NMDG, 5 mM Glucose-D, 10 mM HEPES, pH 7.4. After the loading time, the loading buffer is not removed and the fluorescence is measured in FlexStation™ (Molecular Devices, USA), or any other suitable equipment known to the skilled in the art. Temperature: 25° C. First addition: 50 μl test solution at a rate of 26 μl/sec and a starting height of 125 μl. […] Reading intervals: pre-incubation—120 sec. antagonist phase, addition of MES at 145 sec. and reading time with agonist 100 sec (total run time of 240 sec.). Fluorescence obtained after stimulation is corrected for the mean basal fluorescence (in modified Assay Buffer). […] Gated-channel activity was determined by measuring intracellular calcium variation using a fluorescent calcium dye (Fluo-4-NW).

[2] = target: T2, recombinant homomeric hASIC1a channels (Homo sapiens, UniProt P78348); assay: Two-electrode voltage clamp in Xenopus laevis oocytes expressing gated ion channels (Example 4); format: cell-based; details: for IC50: generated using oocytes as in Example 4; for reduction in the current evoked by a mild pH stimulation: acid-induced inward currents in oocytes injected with hASIC1a cDNA, FIGS. 2A-2C
T2 construct: expressed in transfected cells; host or cells: Xenopus laevis oocytes (nuclear microinjection of expression vector such as pcDNA3)
T2 sequence (P78348 1-528): T1 sequence (P78348 1-528)

[3] = test system: acute paw inflammation caused by intraplantar injection of λ-carrageenan; assay: Carrageenan model for pain (Example 8); format: in vivo; details: rat, 30 min prior to carrageenan, 4 h post-carrageenan
Method: Acute inflammatory hyperalgesia is induced in rats by unilateral injection of 150 μl of a 3% solution of λ-carrageenan into the plantar surface of the left hind paw 3-5 hours prior to testing. Thermal hyperalgesia, mechanical allodynia, mechanical hyperalgesia, weight bearing asymmetry and paw inflammation were determined. Rats are pretreated with test compounds either administered intravenously (IV), by subcutaneous injection (SC) or by oral gavage (PO).
Thermal nociceptive thresholds are determined according to the method described elsewhere (Hargreaves et al., 1988). Briefly, through the glass surface, a radiant heat source (8V, 50 W projector bulb) is focused onto the plantar surface of the hind paw. The rat's paw-withdrawal latency to this stimulus is recorded to the nearest 0.1 s. Each latency score is an average of three trials, which are separated by at least 5 min. In all rats, both the injured and uninjured hind paws are similarly tested, allowing direct comparisons between inflamed and non-inflamed paws. […]
Mechanical hyperalgesia is determined by measuring the difference of withdrawal thresholds in response to increasing pressure in the inflamed vs contralateral paw using the Randall-Sellito Paw pressure meter (IITC Life Science) (Randall L O and Sellito J J., 1957). Briefly, rats are held in a contention jacket suspended by a stand and allowed to acclimate for 10 min. Then the tips of the paw pressure applicator are positioned close to the middle of the plantar and the dorsal area of the paw, avoiding the saphenous nerve innervations and an increasing pressure is applied until the rat removes it. Measures are performed in triplicate for each paw by alternating each paw with an interval of at least 1 min to avoid sensitization. […]
Carrageenan induced paw oedema is measured with a plethysmometer (IITC Life Science). Briefly, a mark is made on the ankles of the rat and the ipsi and contralateral paw are submerged 3 times into water up to the mark in order to determine the paw volume by calculation of water displacement.

[4] = test system: chemically-induced spontaneous pain evoked by intraplantar injection of formalin; assay: Formalin test, model of acute tonic pain (Example 7); format: in vivo; details: rat; SC, 10 and 300 μmol/kg, 30 min prior to formalin; FIG. 3A
Method: Male Sprague-Dawley rats are housed together in groups of three animals under standard conditions with unrestricted access to food and water. All experiments are conducted according to the ethical guidelines for investigations of experimental pain in conscious animals (Zimmerman, 1983).
Assessment of formalin-induced flinching behavior in normal, uninjured rats (body weight 200-300 g) is made after formalin (2.5% in saline, 50-100 μl, s.c.) is injected into the plantar surface of the hindpaw using a 27 G needle. Rats are pretreated with test compounds either administered intravenously (IV), by subcutaneous injection (SC) or by orally (PO).
Nociceptive behavior is determined manually every 5 min by measuring the amount of time spent in each of four behavioral categories: 0, treatment of the injected hindpaw is indistinguishable from that of the contralateral paw; 1, the injected paw has little or no weight placed on it; 2, the injected paw is elevated and is not in contact with any surface; 3, the injected paw is licked, bitten, or shaken. A weighted nociceptive score, ranging from 0 to 3 is calculated by multiplying the time spent in each category by the category weight, summing these products, and dividing by the total time for each 5 min block of time. (Coderre et al., Pain 1993; 54: 43). On the basis of the resulting response patterns, […] of nociceptive behavior are identified and scored: first phase (P1; 0-5 min), interphase (Int; 6-15 min), second phase (P2; […]), phase 2A (P2A; 16-40 min) and phase 2B (P2B; 41-60 min).
Statistical analysis is performed using the Prism™ 4.01 software package (GraphPad, San Diego, Calif., USA). The difference in response levels between treatment groups and control vehicle group is analyzed using an ANOVA followed by Bonferroni's method for post-hoc pair-wise comparisons. A p value <0.05 is considered to be significant.

- inhibition of acid-induced hASIC1a activity (intracellular calcium variation) [1]: dose-dependently inhibited
- IC50 ([2]; Table 1): 0.1 to 10 µM
- reduction in the current evoked by a mild pH stimulation [2]: clear dose-dependent reduction
Compound: Cc1cc(OC2CCN(Cc3ccccc3C(=O)O)CC2)c2cccc(F)c2n1 [Compound 1]
- mechanical hyperalgesia ([3]; 120 mg/kg PO): reversed
- size of the inflammation ([3]; 120 mg/kg PO): reduced
- thermal hyperalgesia ([3]; 120 mg/kg PO): reversed
- pain intensity as evaluated by the licking behavior [4]: dose-dependent reduction

- inhibition of acid-induced hASIC1a activity (intracellular calcium variation) [1]: dose-dependently inhibited
- IC50 ([2]; Table 1): 0.1 to 10 µM
- reduction in the current evoked by a mild pH stimulation [2]: clear dose-dependent reduction
Compound: Cc1cc(OC2CCN(Cc3ccccc3F)C(C)C2)c2cccc(F)c2n1 (stereo not drawn) [Compound 6, 8-Fluoro-4-[1-(2-fluoro-benzyl)-2-methyl-piperidin-4-yloxy]-2-methyl-quinoline]

- IC50 ([2]; Table 2): 10.1 to 20 µM
Compound: COc1ccc2cc(CN3CCC(Oc4cc(C)nc5c(F)cccc45)CC3)ccc2c1 [Compound 87]

- IC50 ([2]; Table 2): 0.1 to 10 µM
Compound: Cc1cc(OC2CCN(Cc3ccc(O)c(O)c3)CC2)c2ccccc2n1 [Compound 88]

- IC50 ([2]; Table 2): > 30 µM
Compound: c1ccc(CN2CCC(Oc3c4ccccc4nc4ccccc34)CC2)cc1 [Compound 89]

- IC50 ([2]; Table 2): ≥ 30 µM
Compound: Cc1cc(OC2CCN(Cc3ccc(O)c(C(=O)O)c3)CC2)c2cccc(F)c2n1 [Compound 90]

- IC50 ([2]; Table 2): > 30 µM
Compound: COc1cccc2c(OC3CCN(Cc4ccccc4C#N)CC3)cc(C)nc12 [Compound 91]

- IC50 ([2]; Table 2): > 30 µM
Compound: Cc1cc(OC2CCN(Cc3cccc(C(=O)O)c3)CC2)c2cc(O)ccc2n1 [Compound 92]

- IC50 ([2]; Table 2): 20.1 to 30 µM
Compound: COc1cccc2c(OC3CCN(Cc4ccccc4-c4nnn[nH]4)CC3)cc(C)nc12 [Compound 93]

- IC50 ([2]; Table 2): 0.1 to 10 µM
Compound: Cc1cc(OC2CCN(Cc3ccccc3-c3nnn[nH]3)CC2)c2cc(F)ccc2n1 [Compound 94, 4-(1-(2-(1H-tetrazol-5-yl)benzyl)piperidin-4-yloxy)-6-fluoro-2-methylquinoline]
- mechanical hyperalgesia ([3]; 30 and 100 mg/kg SC): dose-dependently reversed
- size of the inflammation ([3]; 30 and 100 mg/kg SC): reduced
- thermal hyperalgesia ([3]; 30 and 100 mg/kg SC): dose-dependently reversed

- IC50 ([2]; Table 2): 0.1 to 10 µM
Compound: COc1ccc(F)c2c(OC3CCN(Cc4ccccc4-c4nnn[nH]4)CC3)cc(C)nc12 [Compound 95]

- IC50 ([2]; Table 2): > 30 µM
Compound: Cc1cc(OC2CCN(Cc3ccc(C(=O)O)cc3)CC2)c2cc(O)ccc2n1 [Compound 96]

- IC50 ([2]; Table 2): 0.1 to 10 µM
Compound: Cc1cc(OC2CCN(Cc3ccccc3-c3nnn[nH]3)CC2)c2cc(Cl)ccc2n1 [Compound 100]
